Tests used:
[1] = system: isolated rat hearts (wild-type and GPx-TG); assay: Langendorff isolated heart, zero-flow ischemia followed by reperfusion (Example 1); type: ex vivo; details: compared with vehicle control
Protocol: Hearts were isolated from rats and perfused in the Langendorff mode as previously described (Jain et al., Am J Physiol. 2001; 280:H569-H575; Lim et al., Am J Physiol. 1999; 277:H2083-H2090). Briefly, animals were injected intraperitoneally with heparin (10,000 U/kg) and anesthetized with a mixture of ketamine (150 mg/kg) and xylazine (15 mg/kg). The thorax was rapidly opened and the heart excised and arrested in ice-cold saline. A short perfusion cannula was inserted into the aortic root to initiate retrograde perfusion. The hearts were perfused with Krebs-Henseleit buffer (in mmol/L: NaCl 118, KCl 4.7, CaCl2 1.8, KH2PO4 1.2, MgSO4 1.2, NaHCO3 24.0, and glucose 10.0) equilibrated with 95% O2/5% CO2 to yield a pH of 7.4. A thin cannula was pierced through the apex of the left ventricle (LV) to vent thebesian drainage. A ventricular balloon, composed of polyvinyl chloride film and connected to a polyethylene tube, was inserted into the LV through the mitral valve via an incision in the left atrium. The balloon was connected to a pressure transducer (Statham P23Db, Gould) for recording of LV pressures. The balloon was inflated with saline to adjust the end-diastolic pressure (EDP) to 10 mm Hg, and the balloon volume was held constant for the duration of the experiment. Hearts were paced (Grass Instruments) with platinum wires placed on the epicardial surface of the right ventricle. Coronary perfusion pressure was held constant during the duration of the experiment at 80 mm Hg. An inline ultrasonic flow probe (Transonics Systems Inc) was positioned immediately above the aortic cannula to measure coronary flow. Systolic pressure, EDP, and coronary flow were collected online by use of a commercially available data acquisition system (PowerLab ADInstruments). Developed pressure (DevP) (the difference between systolic and diastolic pressures) and EDP were used as indices of contractile and diastolic function, respectively.
During 20 minutes of baseline stabilization, all hearts were maintained at 37° C. and paced at 7 Hz. Hearts were subsequently subjected to 15 minutes of zero-flow ischemia followed by 30 minutes of reperfusion with or without a reperfusion solution containing 23 μM of the SOD mimetic M40403. The EDP was higher and DevP was lower in the wild-type (WT) rats with this treatment compared with vehicle control.

[2] = system: rat hearts; assay: No-flow ischemia-reperfusion of hearts after 2 weeks of Se supplementation (Example 2); type: in vivo; details: 23 μM M40403 in perfusate with sodium selenite 50 μg/kg/day for 2 weeks; compared to M40403 without sodium selenite
Protocol: Hearts were isolated from rats and perfused in the Langendorff mode as previously described (Jain et al., Am J Physiol. 2001; 280:H569-H575; Lim et al., Am J Physiol. 1999; 277:H2083-H2090). Briefly, animals were injected intraperitoneally with heparin (10,000 U/kg) and anesthetized with a mixture of ketamine (150 mg/kg) and xylazine (15 mg/kg). The thorax was rapidly opened and the heart excised and arrested in ice-cold saline. A short perfusion cannula was inserted into the aortic root to initiate retrograde perfusion. The hearts were perfused with Krebs-Henseleit buffer (in mmol/L: NaCl 118, KCl 4.7, CaCl2 1.8, KH2PO4 1.2, MgSO4 1.2, NaHCO3 24.0, and glucose 10.0) equilibrated with 95% O2/5% CO2 to yield a pH of 7.4. A thin cannula was pierced through the apex of the left ventricle (LV) to vent thebesian drainage. A ventricular balloon, composed of polyvinyl chloride film and connected to a polyethylene tube, was inserted into the LV through the mitral valve via an incision in the left atrium. […]
Hearts were treated first for 2 weeks with or without Se supplementation (as sodium selenite, 50 μg/kg/day), after which they were subjected to no-flow ischemia-reperfusion with 23 μM of the SOD mimetic M40403 added to the perfusate. EDP and DevP (as measures of ventricular performance) were monitored over time following restoration of perfusion. […]

[3] = GPx-TG (glutathione peroxidase-1 transgene) with added dietary selenium, 23 μM M40403 in reperfusion solution
[4] = wild-type (WT) rats, 15 min zero-flow ischemia, 30 min reperfusion with 23 μM M40403

[Cl-].[Cl-].[Mn+2].c1cc2nc(c1)CN[C@@H]1CCCC[C@H]1NCCN[C@@H]1CCCC[C@H]1NC2 [M40403]
developed pressure (DevP) [1, 3]: no change
end-diastolic pressure (EDP) [1, 3]: improved EDP (i.e., lower EDP)
developed pressure (DevP) [1, 4]: lower
end-diastolic pressure (EDP) [1, 4]: higher
end-diastolic pressure (EDP) [2]: improved EDP (i.e., lower EDP)

— US20080139525A1, “ANTIOXIDANT THERAPIES” (The Brigham and Women's Hospital, Inc., priority 2006, published 2008)
